Results reported in US20230165979A1, “COPPER-CONTAINING THERAGNOSTIC COMPOSITIONS AND METHODS OF USE” (Cornell University, priority 2020, published 2023).

Columns and labels:
LNCaP tumors [1] = test: Published biodistribution of 177Lu-labeled comparison ligands in the same animal model; type: in vivo, mice; settings: over 96 h p.i.; from previously determined values
Description: When tumor size reached approximately 200 mm^3, mice (n=4/time point) were administered 3.8±0.1 MBq [^64Cu]Cu-RPS-085 or 0.8±0.005 MBq [^67Cu]Cu-RPS-085 by intravenous injection. The total mass dose received by each animal was approximately 50 ng (31 pmol) and approximately 28 ng (17 pmol) for the [^64Cu]Cu-RPS-085 and [^67Cu]Cu-RPS-085 studies, respectively. The mice were sacrificed at 4 h, 24 h, or 48 h p.i. ([^64Cu]Cu-RPS-085) or 4 h, 24 h, and 96 h ([^67Cu]Cu-RPS-085). A blood sample was collected, and the following tissues were collected and weighed wet using a digital balance: heart, lungs, liver, stomach, small intestine, large intestine, spleen, pancreas, kidneys, muscle, bone, and tumor. The tissues were counted on a Wizard2 Automatic Gamma Counter (Perkin Elmer, USA) against a 1% injected dose standard. The counts were corrected for decay and for activity injected, and tissue uptake was expressed as percent injected dose per gram (% ID/g). Standard error of the mean (SEM) was calculated for each data point. Statistical analyses were performed using an unpaired t test with GraphPad Prism software. A P value of less than 0.05 was considered significant. […] Published values for [177Lu]Lu-RPS-063 are shown for comparison; all concentrations are expressed as percent injected dose per organ.

LNCaP tumors [2] = settings: over 96 h p.i.; same animal model; previously determined; cited from earlier work

- Ãtumor/Ãkidney ratio (LNCaP tumors [1]): 2.1
Substance: [^177Lu]Lu-PSMA-617
- accumulated activity (Ã) in LNCaP tumors (LNCaP tumors [2]): 544 (% ID/g)·h
- accumulated activity (Ã) in kidneys (LNCaP tumors [2]): 260 (% ID/g)·h
